Data on 4 compounds can be found in PMC8273159, “In Vivo Behavior of the Antibacterial Peptide Cyclo[RRRWFW], Explored Using a 3-Hydroxychromone-Derived Fluorescent Amino Acid” (Frontiers in Chemistry, 2021).

Converted amounts (≈) assume the structure as drawn. Numbered stars: 1 amine (or outer) side, 2 acyl side, 3 side chain; on linkers, the order of the positions; unused ones are H or OH. Square brackets hold non-standard residues; d marks the D form. Peptide text beside a SMILES is read from it. X1 = O=C([C@H](Cc1ccc2oc(-c3ccco3)c(O)c(=O)c2c1)N[*:1])[*:2] Some results are limits rather than exact numbers.

Data set [1] deals with human erythrocyte suspension. The data set is described as follows: Hemolysis assay (hemoglobin release). In kind it is cell-based. The settings on record: Tris-HCl pH 7.6, 37°C, 30 min. An excerpt: All chemicals were purchased from Sigma-Aldrich, Iris Biotech or Biosolve and were used without further purification. Ultrapure deionized (MilliQ, Millipore) water was used to prepare aqueous solutions and mixtures. Solvents for peptide purification and optical spectroscopy were of HPLC grade and were degassed before use. Culture media and supplements for animal cells were from Thermo Fisher, those for bacterial culturing were from Becton, and those for zebrafish embryo handling were freshly prepared. Citrate phosphate dextrose-stabilized blood bags with erythrocyte suspensions of healthy donors for hemolysis assays were obtained from the blood bank of the Karlsruhe municipal hospital.
Hemolytic activity was examined using the same serial twofold dilution concentrations as for the MIC assay. […] The tubes were centrifuged at 13,000 rpm for 10 min to pellet the cells, and the absorbance at 540 nm was recorded against a negative control (cells without peptide, accounting for autohaemolysis). The lysis percentage was calculated relative to lysis levels induced by 1% (v/v) Triton X-100. The absorbance measurements were repeated five times, and the averaged values were used.

The subject of data set [2] is Escherichia coli (DSM 1116). The data set is classed as cell-based. Particulars: DSM 1116, 20 h. As for the experimental part: (§1) Bacillus spizizenii (DSM 347) and Escherichia coli (DSM 1116) were purchased from the German Collection of Microorganisms and Cell Cultures. The bacterial strains were maintained frozen at −80°C using a bacterial Cryobank System (Mast Diagnostica). To refresh bacterial cells on single glass beads, they were grown overnight in Müller-Hinton (MH) medium, and colonies were obtained by streaking on MH agar. Then, colony cells were used to inoculate MH broth up to OD = 0.02 and grew at 37°C overnight. These overnight cultures were used to inoculate the test culture, which was grown for 3–4 h until it reached exponential growth. HeLa (ECACC 93021013) and HEK293 (ECACC 85120602) cells were purchased from […] and were routinely cultured in Roswell Park Memorial Institute (RPMI) 1640 medium or Dulbecco’s modified Eagle medium (DMEM) supplemented with 10% fetal calf serum (FCS) and 1% penicillin/streptomycin, respectively. Cells were passaged every 2–3 days and used until passage 35. All animal cell types were cultured at 37 °C in a 5% CO2 atmosphere and tested negative for mycoplasma.
(§2) The bacteriostatic activity of the peptides was characterized by determining minimal culture growth inhibitory concentrations (MICs) in planktonic cultures. Serial twofold dilutions of each peptide (in-well concentration range: 128 μg/ml to […]) were prepared in MH broth and aliquoted into round-bottom 96-well microtiter plates (Sarstedt). Each well was inoculated with a standardized inoculum to achieve a final test concentration of approximately 10^6 cells/ml. […] The measurements were repeated twice with three replicates each time.

The test system of data set [3] is Bacillus spizizenii (DSM 347). In kind it is cell-based. The settings on record: DSM 347, 20 h. As for the experimental part:
as §1, §2

A short description of data set [4]: Analytical C18 HPLC retention time as measure of overall hydrophobicity. Particulars: chromatographic, C18 phase (Vydac), water/acetonitrile with 0.1% TFA, 1% B/min gradient, column 40°C; used to assess overall hydrophobicity. The data set is classed as physicochemical. Here is the method: The peptides were purified (>95%) by reversed-phase high-performance liquid chromatography (HPLC) employing C18 stationary phase columns (Vydac) and TFA-supplemented (0.1% v/v) water/acetonitrile gradients (4% eluent B/min) without temperature control on a Jasco HPLC system equipped with a diode array detector. Analytical chromatography was performed using the same stationary/mobile phase conditions, employing temperature control (column temperature 40°C) and shallower gradients (1% eluent B/min). All peptides and individual HPLC fractions were characterized by matrix-assisted laser desorption/ionization time-of-flight mass spectrometry (MALDI-TOF MS) using a Bruker Autoflex III instrument in positive reflector detection mode and with α-cyano-4-hydroxycinnamic acid as a matrix. From pure peptide powders, stock solutions were prepared (1 mg/ml) in 30% aqueous acetonitrile and stored at −80°C. For spectroscopy, imaging and bioactivity measurements, aliquots from these solutions were taken a day before the experiment, and peptide samples containing the necessary amount of peptide dry material were obtained by lyophilization overnight.

For the compound `N=C(N)NCCC[C@@H]1NC(=O)[C@H](CCCNC(=N)N)NC(=O)[C@H](Cc2c[nH]c3ccccc23)NC(=O)[C@H](Cc2ccc3oc(-c4ccco4)c(O)c(=O)c3c2)NC(=O)[C@H](Cc2c[nH]c3ccccc23)NC(=O)[C@H](CCCNC(=N)N)NC1=O` [cRW-F^2/FHC] (cyclo(RRRW[X1]W)), the “death of erythrocytes (hemolysis)” value in data set [1] (30 µM peptide, absorbance 540 nm, relative to 1% Triton X-100, five readings averaged) is > 50%. Further, the “hemolytic activity, comparison in words” value in data set [1] (human erythrocytes, relative to 1% Triton X-100) is recorded as “the most hemolytic”. For the same compound, the “MIC E. coli” value in data set [2] came out at 28.1 µM (≈ 32 µg/mL). Moreover, in data set [3], the “MIC B. spizizenii” value came to 14.0 µM (≈ 15.9 µg/mL).

In the case of `N=C(N)NCCC[C@@H]1NC(=O)[C@H](CCCNC(=N)N)NC(=O)[C@H](Cc2c[nH]c3ccccc23)NC(=O)[C@H](Cc2ccccc2)NC(=O)[C@H](Cc2ccc3oc(-c4ccco4)c(O)c(=O)c3c2)NC(=O)[C@H](CCCNC(=N)N)NC1=O` [cRW-W^1/FHC] (cyclo(FWRRR[X1])), in data set [2], the “MIC E. coli” value was 29.1 µM (≈ 32 µg/mL). For the same compound, in data set [3], the “MIC B. spizizenii” value was found to be 14.6 µM (≈ 16 µg/mL).

As for `N=C(N)NCCC[C@@H]1NC(=O)[C@H](CCCNC(=N)N)NC(=O)[C@H](Cc2ccc3oc(-c4ccco4)c(O)c(=O)c3c2)NC(=O)[C@H](Cc2ccccc2)NC(=O)[C@H](Cc2c[nH]c3ccccc23)NC(=O)[C@H](CCCNC(=N)N)NC1=O` [cRW-W^3/FHC] (cyclo(F[X1]RRRW)), the “RT (apparent retention time)” value in data set [4] stood at 11 min. Also, the “MIC E. coli” value in data set [2] was 29.1 µM (≈ 32 µg/mL). Besides, the “MIC B. spizizenii” value in data set [3] was determined as 14.6 µM (≈ 16 µg/mL).

Take `N=C(N)NCCC[C@@H]1NC(=O)[C@H](CCCNC(=N)N)NC(=O)[C@H](Cc2c[nH]c3ccccc23)NC(=O)[C@H](Cc2ccccc2)NC(=O)[C@H](Cc2c[nH]c3ccccc23)NC(=O)[C@H](CCCNC(=N)N)NC1=O` [cWFW, cyclo[RRRWFW]] (cyclo(FWRRRW)): the “RT (apparent retention time)” value in data set [4] is reported as 9 min. The “MIC E. coli” value in data set [2] was 8.1 µM (≈ 8 µg/mL). In addition, the “MIC B. spizizenii” value in data set [3] was 4.0 µM (≈ 3.95 µg/mL).
